In PubChem BioAssay AID2061108 (Research group of Professor Matthew Todd, School of …, 2025):

Tested on: E. coli NCTC 12923 + PMBN growth inhibition, 100 uM
Assay: microbial growth inhibition plus red cell haemolysis – Idler compounds, first plate, PMBN-permeabilized strains, profiling panel (AID 2061108)
Details: S. aureus ATCC 9144 growth inhibition; measured here: E. coli plus PMBN; at 100 µM; stronger effect = higher value

Row | Compound | inhibition [%]
1 | COc1ccc2c(c1)nc(-c1ccc[nH]1)c1[nH]ccc12 | 100
2 | N#CC1(c2cccc(-c3cccc4c3CCOC4C(=O)O)c2)CC1 (stereo not drawn) | -11.3
3 | Cc1ccn2c(=O)nc(SCC(=O)OCc3ccccc3)nc2c1 | -29.4
4 | O=C(c1ccccc1)c1ccc(NS(=O)(=O)c2cccc(Cl)c2)cc1 | 86.3
5 | O=S(=O)(NC1(Cc2ccc(Cl)cc2Cl)CCC1)c1ccc(-c2nn[nH]n2)cc1 | 22.2
6 | O=c1[nH]c(=O)c2cc(S(=O)(=O)Nc3cc(F)c(NCCN4CCOCC4)c(F)c3)ccc2[nH]1 | 0.988
7 | O=C(Nc1ccc(Oc2ccccc2)cc1)c1cccc(-c2nn[nH]n2)c1 | 5.93

Tested on: C. albicans NCPF 3281 growth inhibition, 100 uM
Assay: as above
Details: S. aureus ATCC 9144 growth inhibition; measured here: C. albicans NCPF 3281; at 100 µM; stronger effect = higher value

Row | Compound | inhibition [%]
8 | N#Cc1c(NC[C@H]2CCCN2)nc2ccccc2c1C(F)(F)F | -78.9
9 | C=CC(=O)N1CCCc2c(C(=O)O)cccc21 | -51.3
10 | CC(C)C(N)C(=O)NS(=O)(=O)c1cccc(-c2cc3ncnc(N)c3s2)c1 (stereo not drawn) | -123
11 | Nc1ncnc2cc(-c3cccc(S(=O)(=O)NC(=O)C(N)Cc4ccccc4)c3)sc12 (stereo not drawn) | -49.9
12 | N#Cc1c(N2Cc3cccc(O)c3C2)nc2ccccc2c1C(F)(F)F | 3.66
13 | COc1ccc(/C=C(\C#N)S(=O)(=O)c2ccccc2)cc1OC | -60.8
14 | Nc1ncnc2cc(-c3cccc(S(=O)(=O)NC(=O)C(N)CC(=O)O)c3)sc12 (stereo not drawn) | -64.6
15 | COc1cc2nc(N3CCC(N(C)C)C3)nc(N3CCN(C(=O)OC(C)(C)C)CC3)c2cc1OC (stereo not drawn) | -73.8
16 | Cc1cccc(C)c1OCC(O)CSc1ccccn1 (stereo not drawn) | -34.4
17 | CCC(C)NS(=O)(=O)CCCOc1ccc(F)cc1 (stereo not drawn) | -63.1
18 | O=c1[nH]c(=O)c2cc(S(=O)(=O)Nc3cc(F)c(N4CCC(N5CCOCC5)CC4)c(F)c3)ccc2[nH]1 | -44.5
19 | O=S(=O)(Nc1ccc(Oc2ccccc2)cc1)c1ccc(-c2nn[nH]n2)cc1 | -30.5
20 | CCCOc1cc(S(=O)(=O)n2cccn2)ccc1Br | -62.6
21 | Nc1ncnc2cc(-c3cccc(S(N)(=O)=O)c3)sc12 | -67.9
22 | FC(F)Oc1ccc(-c2nnc3cncc(OCCCC(F)(F)F)n23)cc1 | -49.2
23 | Cc1ccc(N2CN(CC(=O)Nc3ccccc3Cl)S(=O)(=O)c3cccnc32)cc1 | -124
24 | O=C(Nc1ccc(Oc2ccccc2)cc1)c1ccc(-c2nn[nH]n2)nc1 | -10.3
25 | O=C(Nc1cccc(C(F)(F)F)c1)C(Cl)C(=O)c1ccccc1 (stereo not drawn) | 101
26 | N#Cc1ccc(NC2Cc3cccc(O)c3C2)cc1C(F)(F)F (stereo not drawn) | 100
27 | O=C(O)c1cc(-c2ccco2)on1 | -23.7
28 | O=C(N/N=C/c1cnc(C(F)(F)F)nc1)c1ccncc1 | 17
29 | COc1ccc2c(c1)nc(-c1ccc[nH]1)c1[nH]ccc12 | 101
30 | N#CC1(c2cccc(-c3cccc4c3CCOC4C(=O)O)c2)CC1 (stereo not drawn) | -60.5
31 | Cc1ccn2c(=O)nc(SCC(=O)OCc3ccccc3)nc2c1 | -102
32 | O=C(c1ccccc1)c1ccc(NS(=O)(=O)c2cccc(Cl)c2)cc1 | -41.2
33 | O=S(=O)(NC1(Cc2ccc(Cl)cc2Cl)CCC1)c1ccc(-c2nn[nH]n2)cc1 | -103
34 | O=c1[nH]c(=O)c2cc(S(=O)(=O)Nc3cc(F)c(NCCN4CCOCC4)c(F)c3)ccc2[nH]1 | -21.1
35 | O=C(Nc1ccc(Oc2ccccc2)cc1)c1cccc(-c2nn[nH]n2)c1 | -19

Tested on: E. coli NCTC 12923 growth inhibition, 100 uM
Assay: as above
Details: E. coli NCTC 12923 growth inhibition, 100 µM; stronger effect = higher value

Row | Compound | inhibition [%]
36 | N#Cc1c(NC[C@H]2CCCN2)nc2ccccc2c1C(F)(F)F | 12.8
37 | C=CC(=O)N1CCCc2c(C(=O)O)cccc21 | -5.27
38 | CC(C)C(N)C(=O)NS(=O)(=O)c1cccc(-c2cc3ncnc(N)c3s2)c1 (stereo not drawn) | -28.5
39 | Nc1ncnc2cc(-c3cccc(S(=O)(=O)NC(=O)C(N)Cc4ccccc4)c3)sc12 (stereo not drawn) | -49.3
40 | N#Cc1c(N2Cc3cccc(O)c3C2)nc2ccccc2c1C(F)(F)F | 2.16
41 | COc1ccc(/C=C(\C#N)S(=O)(=O)c2ccccc2)cc1OC | -0.135
42 | Nc1ncnc2cc(-c3cccc(S(=O)(=O)NC(=O)C(N)CC(=O)O)c3)sc12 (stereo not drawn) | 0.676
43 | COc1cc2nc(N3CCC(N(C)C)C3)nc(N3CCN(C(=O)OC(C)(C)C)CC3)c2cc1OC (stereo not drawn) | 2.57
44 | Cc1cccc(C)c1OCC(O)CSc1ccccn1 (stereo not drawn) | -44.2
45 | CCC(C)NS(=O)(=O)CCCOc1ccc(F)cc1 (stereo not drawn) | 0
46 | O=c1[nH]c(=O)c2cc(S(=O)(=O)Nc3cc(F)c(N4CCC(N5CCOCC5)CC4)c(F)c3)ccc2[nH]1 | -6.35
47 | O=S(=O)(Nc1ccc(Oc2ccccc2)cc1)c1ccc(-c2nn[nH]n2)cc1 | 0.135
48 | CCCOc1cc(S(=O)(=O)n2cccn2)ccc1Br | -38.1
49 | Nc1ncnc2cc(-c3cccc(S(N)(=O)=O)c3)sc12 | 1.22
50 | FC(F)Oc1ccc(-c2nnc3cncc(OCCCC(F)(F)F)n23)cc1 | -7.16
51 | Cc1ccc(N2CN(CC(=O)Nc3ccccc3Cl)S(=O)(=O)c3cccnc32)cc1 | -45.3
52 | O=C(Nc1ccc(Oc2ccccc2)cc1)c1ccc(-c2nn[nH]n2)nc1 | 0.676
53 | O=C(Nc1cccc(C(F)(F)F)c1)C(Cl)C(=O)c1ccccc1 (stereo not drawn) | 34.5
54 | N#Cc1ccc(NC2Cc3cccc(O)c3C2)cc1C(F)(F)F (stereo not drawn) | 22.3
55 | O=C(O)c1cc(-c2ccco2)on1 | 1.89
56 | O=C(N/N=C/c1cnc(C(F)(F)F)nc1)c1ccncc1 | -2.16
57 | COc1ccc2c(c1)nc(-c1ccc[nH]1)c1[nH]ccc12 | 43.8
58 | N#CC1(c2cccc(-c3cccc4c3CCOC4C(=O)O)c2)CC1 (stereo not drawn) | -6.62
59 | Cc1ccn2c(=O)nc(SCC(=O)OCc3ccccc3)nc2c1 | -34.5
60 | O=C(c1ccccc1)c1ccc(NS(=O)(=O)c2cccc(Cl)c2)cc1 | 4.05
61 | O=S(=O)(NC1(Cc2ccc(Cl)cc2Cl)CCC1)c1ccc(-c2nn[nH]n2)cc1 | 0.135
62 | O=c1[nH]c(=O)c2cc(S(=O)(=O)Nc3cc(F)c(NCCN4CCOCC4)c(F)c3)ccc2[nH]1 | -4.32
63 | O=C(Nc1ccc(Oc2ccccc2)cc1)c1cccc(-c2nn[nH]n2)c1 | -9.59
